Values of other authors, collected in patent US12030986B2, “Sustained release composition using biobased biodegradable hyperbranched polyesters” (CENTRAL MICHIGAN UNIVERSITY, priority 2014, dated 2024).

In the case of `O=C(O)[C@@H]1C[C@@H](O)CN1` (relative stereo) [trans-4-hydroxyproline], the pKa is given as 1.8.
For `O=P(O)(O)O[C@H]1[C@H](OP(=O)(O)O)[C@@H](OP(=O)(O)O)[C@H](OP(=O)(O)O)[C@@H](OP(=O)(O)O)[C@H]1OP(=O)(O)O` [Phytic, phytic acid], the pKa is given as 1.8.
In the case of `N[C@@H](CC(=O)O)C(=O)O` [aspartic], the pKa is listed as 2.0.
For `O=C(O)/C=C(/CC(=O)O)C(=O)O` [cis-aconitic], the pKa is listed as 2.0.
In the case of `NC(CS(=O)(=O)O)C(=O)O` (stereo not drawn) [cysteic], the pKa is given as 1.3.
In the case of `N[C@@H](CCC(=O)O)C(=O)O` [glutamic], the pKa is given as 2.1.
In the case of `N[C@@H](CCSSCC[C@H](N)C(=O)O)C(=O)O` [homocystine], the pKa is listed as 1.6.
For `CNCC(=O)O` [methlyglycine], the pKa is listed as 2.2.
For `O=C(O)c1cccnc1` [nicotinic], the pKa is listed as 2.2.
In the case of `O=C(O)c1ccccn1` [picolinic acid], the pKa is listed as 1.0.
In the case of `CC(=O)C(=O)O` [pyruvic], the pKa is listed as 2.4.
For `C[C@@H](O)[C@H](N)C(=O)O` [threonine], the pKa is given as 2.1.
